Experiments:
[1] = system: rats; test: Urine osmolarity and urine volume after tracheal instillation of AVP during 5% glucose infusion; format: in vivo, rat; details: 0.6 units AVP by tracheal instillation after 30 minutes of 5% glucose infusion at 10 ml/hr
Description: The trachea was cannulated for drug delivery.
This example illustrates the effect of surfactant on pulmonary vasopressin (AVP) absorption. The experimental details were as follows. 5% glucose was infused at 10 ml/hr throughout the experiment. Urine osmolarity and urine volume resulting from glucose administration alone was contrasted with (1) a delivery of 0.6 units AVP, and (2) delivery of 0.6 units of AVP with 60 μl of surfactant (at a concentration of 40 mg/ml). In (1) and (2) the delivery of AVP and AVP with surfactant was by instillation through the trachea after 30 minutes of glucose infusion which infusion continued. FIGS. 3(a) and (b) show the results in term of urine osmolarity and volume respectively. Infusion of 5% glucose should have the effect of decreasing urine osmolarity and increasing urine volume.

[2] = system: rats; test: Blood glucose after intravenous or tracheal delivery of insulin in cannulated rats
Description: A sufficient number of rats weighing between 350-400 g were selected. In each rat the carotid artery and jugular vein were cannulated for blood sampling and fluid infusion. The trachea was cannulated for drug delivery. Fluids given through the trachea were either in a volume of 100 μl or 200 μl given in two separate doses 30 minutes apart. 40 μl of insulin (at a concentration of 200 units/ml) was mixed with 60 μl of lung surfactant (at a concentration of 40 mg/ml) and was administered by the tracheal route. Insulin without surfactant was administered intravenously to a control sample.

Row | Molecule | effect on urine osmolarity ([1]; FIG. 3(a)) | effect on urine volume ([1]; FIG. 3(b)) | time after which glucose concentration begins to rise again ([2]; intravenous insulin, FIG. 1(a)) | intravenous insulin dose equivalent to tracheal delivery of 8 units of insulin ([2]; tracheal delivery of 8 units (40 μl of 200 units/ml), hypoglycemic effect, FIG. 1(b)) [units] | share of insulin that enters the bloodstream ([2]; tracheal delivery of 8 units, estimated from the equivalent intravenous dose) | duration of hypoglycemic effect ([2]; tracheal delivery, over a three hour period, FIG. 1(b))
1 | NC(=O)CC[C@@H]1NC(=O)[C@H](Cc2ccccc2)NC(=O)[C@H](Cc2ccc(O)cc2)NC(=O)[C@@H](N)CSSC[C@@H](C(=O)N2CCC[C@H]2C(=O)N[C@@H](CCCN=C(N)N)C(=O)NCC(N)=O)NC(=O)[C@H](CC(N)=O)NC1=O [AVP, vasopressin] | increases urine osmolarity | reduces urine volume | – | – | – | –
2 | insulin | – | – | approximately 60 mins | 0.5 | about 6.25% | no significant increase in glucose concentration
